{"source": "patent US20160066572A1", "about": "“METHOD OF SANITIZING EDIBLE SEEDS, PARTICULARLY MUCILAGE PRODUCING SEEDS” (AGRI-NEO INC., priority 2013, published 2016)", "key": {"[1]": {"system": "chia and flax seeds", "assay": "Mucilage release from mucilaginous seeds after treatment", "settings": "alcohol in the aqueous sanitizing composition", "quoted_text": "A minimum of 4 ml of the treatment solution was sprayed, using a handheld atomizing sprayer while mixing, on 100 gram samples of chia and flax seeds. The samples were allowed to air dry and checked for mucilage.\nA minimum of 4 ml of the treatment solution was sprayed, using a handheld atomizing sprayer while mixing, on 100-gram samples of chia and flax seeds. The samples were allowed to air dry and checked for mucilage."}, "[2]": {"system": "Total count Aerobic bacteria", "assay": "Total aerobic count on seeds, grains and spices sprayed with sanitizing solutions (Example 1)", "format": "cell-based", "protocol": "(§1) Seeds were mechanically cleaned and spread in stainless steel containers. Each 100 grams seeds were sprayed with 4 ml total solutions descried above via conventional trigger vaporizer. This solution is equivalent to 40 L disinfecting solution total sprayed on 1-tonne seeds. Seeds, grains and spices were selected to represent all families and types of seeds, grains and spices. Another criterium was to select seeds and grains contaminated with a high count of total aerobic bacteria, yeast, mold, E. coli, Salmonella sp. and other pathogenic microorganisms.\n(§2) Seeds, grains and spices treated were: • Whole dried pea, • Split pea dried, • Pea fiber, • Vanilla, • Chia, • Sprouted flax and chia, • Flax, • Hemp, and • Black pepper seeds"}, "[3]": {"system": "yeast and mold (Y&M)", "assay": "Y&M count on seeds, grains and spices sprayed with sanitizing solutions (Example 1)", "format": "cell-based", "settings": "40 L/tonne; for Y&M, Av: average; for Y&M, n1: replicate n1; for Y&M, n2: replicate n2", "protocol": "as §1, §2"}, "[4]": {"settings": "whole dried pea, 40 L per 1 tonne"}}, "data": [{"compound": "CCO", "note": "[ethanol]", "values": [{"measurement": "effective amount (concentration) required to suppress mucilage release", "setting": "[1]", "result": "about 15 % by volume"}]}, {"compound": "CCO", "note": "[2- Alcohol - ethanol, ethanol]", "values": [{"measurement": "bactericidal effect (conclusion)", "setting": "[2]; black pepper, 40 L per 1 tonne", "result": "not a strong bactericidal agent"}, {"measurement": "Total count Aerobic CFU/g bacteria, Av", "setting": "[2]; black pepper, 40 L/tonne, average", "result": "Av = 1 million"}, {"measurement": "Total count Aerobic CFU/g bacteria, Av", "setting": "[2]; chia seeds, 40 L/tonne, average", "result": "Av = 510,000 CFU/g"}, {"measurement": "Total count Aerobic CFU/g bacteria, n1", "setting": "[2]; chia seeds, 40 L/tonne, replicate n1", "result": "n1 = 520,000 CFU/g"}, {"measurement": "Total count Aerobic CFU/g bacteria, n2", "setting": "[2]; chia seeds, 40 L/tonne, replicate n2", "result": "n2 = 500,000 CFU/g"}, {"measurement": "Total count Aerobic CFU/g bacteria, Av", "setting": "[2]; flax seeds, 40 L/tonne, average", "result": "Av = 2 millions"}, {"measurement": "Total count Aerobic CFU/g bacteria, n1", "setting": "[2]; flax seeds, 40 L/tonne, replicate n1", "result": "n1 = 1.8 millions"}, {"measurement": "Total count Aerobic CFU/g bacteria, n2", "setting": "[2]; flax seeds, 40 L/tonne, replicate n2", "result": "n2 = 2.2 millions"}, {"measurement": "bactericidal effect (conclusion)", "setting": "[2]; hemp, 40 L per 1 tonne", "result": "not a strong bactericidal agent"}, {"measurement": "Total count Aerobic CFU/g bacteria, Av", "setting": "[2]; hemp, 40 L/tonne, average", "result": "Av = 1 million"}, {"measurement": "Total count Aerobic CFU/g bacteria, n1", "setting": "[2]; hemp, 40 L/tonne, replicate n1", "result": "n1 = 800,000 CFU/g"}, {"measurement": "Total count Aerobic CFU/g bacteria, n2", "setting": "[2]; hemp, 40 L/tonne, replicate n2", "result": "n2 = 1.2 millions"}, {"measurement": "bactericidal effect (conclusion)", "setting": "[2]; pea fiber, 40 L per 1 tonne", "result": "not a strong bactericidal agent"}, {"measurement": "Total count Aerobic CFU/g bacteria, Av", "setting": "[2]; pea fiber, 40 L/tonne, average", "result": "Av = 700,000 CFU/g"}, {"measurement": "Total count Aerobic CFU/g bacteria, n1", "setting": "[2]; pea fiber, 40 L/tonne, replicate n1", "result": "n1 = 500,000 CFU/g"}, {"measurement": "Total count Aerobic CFU/g bacteria, n2", "setting": "[2]; pea fiber, 40 L/tonne, replicate n2", "result": "n2 = 900,000 CFU/g"}, {"measurement": "bactericidal effect (conclusion)", "setting": "[2]; split pea, 40 L per 1 tonne", "result": "not a strong bactericidal agent"}, {"measurement": "bactericidal effect (conclusion)", "setting": "[2]; sprouted flax and chia", "result": "bactericidal agent but not very strong"}, {"measurement": "Total count Aerobic CFU/g bacteria, Av", "setting": "[2]; sprouted flax and chia, 40 L/tonne, average", "result": "Av = 600,000 CFU/g"}, {"measurement": "Total count Aerobic CFU/g bacteria, n1", "setting": "[2]; sprouted flax and chia, 40 L/tonne, replicate n1", "result": "n1 = 550,000 CFU/g"}, {"measurement": "Total count Aerobic CFU/g bacteria, n2", "setting": "[2]; sprouted flax and chia, 40 L/tonne, replicate n2", "result": "n2 = 650,000 CFU/g"}, {"measurement": "bactericidal effect (conclusion)", "setting": "[2]; vanilla, 40 L per 1 tonne", "result": "not a strong bactericidal agent"}, {"measurement": "Total count Aerobic CFU/g bacteria, Av", "setting": "[2]; vanilla, 40 L/tonne, average", "result": "Av = 1 million"}, {"measurement": "Total count Aerobic CFU/g bacteria, n1", "setting": "[2]; vanilla, 40 L/tonne, replicate n1", "result": "n1 = 1 million"}, {"measurement": "Total count Aerobic CFU/g bacteria, n2", "setting": "[2]; vanilla, 40 L/tonne, replicate n2", "result": "n2 = 1 million"}, {"measurement": "bactericidal effect (conclusion)", "setting": "[2]; [4]", "result": "not a strong bactericidal agent"}, {"measurement": "Total count Aerobic - CFU/g bacteria, Av", "setting": "[2]; whole dried pea, 40 L/tonne, average", "result": "Av = 900,000 CFU/g"}, {"measurement": "Total count Aerobic - CFU/g bacteria, n1", "setting": "[2]; whole dried pea, 40 L/tonne, replicate n1", "result": "n1 = 800,000 CFU/g"}, {"measurement": "Total count Aerobic - CFU/g bacteria, n2", "setting": "[2]; whole dried pea, 40 L/tonne, replicate n2", "result": "n2 = 1 million"}, {"measurement": "Total count Aerobic CFU/g bacteria, Av", "setting": "[2]; whole split pea, 40 L/tonne, average", "result": "Av = 700,000 CFU/g"}, {"measurement": "Total count Aerobic CFU/g bacteria, n1", "setting": "[2]; whole split pea, 40 L/tonne, replicate n1", "result": "n1 = 700,000 CFU/g"}, {"measurement": "Total count Aerobic CFU/g bacteria, n2", "setting": "[2]; whole split pea, 40 L/tonne, replicate n2", "result": "n2 = 700,000 CFU/g"}, {"measurement": "Y&M, Av", "setting": "[3]; black pepper", "result": "Av = 1,000 Y&M CFU/g"}, {"measurement": "Y&M, Av", "setting": "[3]; chia seeds", "result": "Av = 10,000 Y&M CFU/g"}, {"measurement": "Y&M, n1", "setting": "[3]; chia seeds", "result": "n1 = 10,000/n2 = 10,000 CFU/g"}, {"measurement": "Y&M, n2", "setting": "[3]; chia seeds", "result": "n1 = 10,000/n2 = 10,000 CFU/g"}, {"measurement": "Y&M, Av", "setting": "[3]; flax seeds", "result": "Av = 1,000 Y&M CFU/g"}, {"measurement": "Y&M, n1", "setting": "[3]; flax seeds", "result": "n1 = 1,000/n2 = 1,000 CFU/g"}, {"measurement": "Y&M, n2", "setting": "[3]; flax seeds", "result": "n1 = 1,000/n2 = 1,000 CFU/g"}, {"measurement": "Y&M, Av", "setting": "[3]; hemp", "result": "Av = 1,000 Y&M CFU/g"}, {"measurement": "Y&M, n1", "setting": "[3]; hemp", "result": "n1 = 1000/n2 = 1000 CFU/g"}, {"measurement": "Y&M, n2", "setting": "[3]; hemp", "result": "n1 = 1000/n2 = 1000 CFU/g"}, {"measurement": "Y&M, Av", "setting": "[3]; pea fiber", "result": "Y&M not detected"}, {"measurement": "Y&M, n1", "setting": "[3]; pea fiber", "result": "n1, n2 not detected"}, {"measurement": "Y&M, n2", "setting": "[3]; pea fiber", "result": "n1, n2 not detected"}, {"measurement": "Y&M, Av", "setting": "[3]; sprouted flax and chia", "result": "Av = 1,000 Y&M CFU/g"}, {"measurement": "Y&M, n1", "setting": "[3]; sprouted flax and chia", "result": "n1 = 1,000/n2 = 1,000 CFU/g"}, {"measurement": "Y&M, n2", "setting": "[3]; sprouted flax and chia", "result": "n1 = 1,000/n2 = 1,000 CFU/g"}, {"measurement": "Y&M, Av", "setting": "[3]; vanilla", "result": "Av = 1,000 Y&M CFU/g"}, {"measurement": "Y&M, n1", "setting": "[3]; vanilla", "result": "n1 = 1000/n2 = 1000 CFU/g"}, {"measurement": "Y&M, n2", "setting": "[3]; vanilla", "result": "n1 = 1000/n2 = 1000 CFU/g"}, {"measurement": "Y&M, Av", "setting": "[3]; whole dried pea", "result": "Y&M not detected"}, {"measurement": "Y&M, n1", "setting": "[3]; whole dried pea", "result": "n1, n2 not detected"}, {"measurement": "Y&M, n2", "setting": "[3]; whole dried pea", "result": "n1, n2 not detected"}, {"measurement": "Y&M, Av", "setting": "[3]; whole split pea", "result": "Y&M not detected"}, {"measurement": "Y&M, n1", "setting": "[3]; whole split pea", "result": "n1, n2 not detected"}, {"measurement": "Y&M, n2", "setting": "[3]; whole split pea", "result": "n1, n2 not detected"}]}, {"compound": "CC(=O)OO", "note": "[Peracetic acid]", "values": [{"measurement": "bactericidal effect (conclusion)", "setting": "[2]; black pepper, 40 L per 1 tonne", "result": "strong bactericidal agent"}, {"measurement": "bactericidal effect (conclusion)", "setting": "[2]; hemp, 40 L per 1 tonne", "result": "strong bactericidal agent"}, {"measurement": "bactericidal effect (conclusion)", "setting": "[2]; pea fiber, 40 L per 1 tonne", "result": "strong bactericidal agent"}, {"measurement": "bactericidal effect (conclusion)", "setting": "[2]; split pea, 40 L per 1 tonne", "result": "strong bactericidal agent"}, {"measurement": "bactericidal effect (conclusion)", "setting": "[2]; vanilla, 40 L per 1 tonne", "result": "strong bactericidal agent"}, {"measurement": "bactericidal effect (conclusion)", "setting": "[2]; [4]", "result": "strong bactericidal agent"}]}, {"compound": "CC(O)CO", "note": "(centres unmarked) [propylene glycol]", "values": [{"measurement": "effective amount (concentration) required to suppress mucilage release", "setting": "[1]", "result": "about 13 % by volume"}]}]}
